# Experimental data taken from patent publication US20100160454A1, “ANTIMICROBIAL AGENTS, COMPOSITIONS AND PRODUCTS CONTAINING THE SAME, AND METHODS OF USING THE COMPOSITIONS AND PRODUCTS” (Eastman Chemical Company, priority 2008, published 2010).
# Experiments:
# Assay in all cases: Microbiological challenge testing in BPW broth, graded subculture counts
# Assay type in all cases: cell-based
# Aeromonas sp. Wild type = test system: Aeromonas sp. Wild type
# Experimental: (§1) The microorganisms in the table below were used in challenge tests. They were either ATCC (American Type Culture Collection) or “wild type” as indicated. Wild type organisms were problematic organisms previously isolated from chemical products.
# (§2) All of the microorganisms were grown in Tryptose Soy Broth (TSB), DIFCO™ available from Becton, Dickinson and Company, containing 1% dextrose. Candida albicans and Aspergillus niger, were incubated at 22° C.+/−2° C. for at least 96 hours. All bacteria were incubated at 35° C.+/−2° C. in a humidified incubator for at least 96 hours.
# (§3) The following procedure was followed to determine the amount of each challenge material (inoculum broth) needed to produce a 10^8 CFU/mL challenge, which is equivalent to a final test-sample microbial concentration of 10^5 to 10^6 CFU/mL (CFU=colony forming units).
# (§4) Using a sterile pipette, 1 mL of the growth from each TSB culture was transferred into tubes of 9 mL buffered water (pH 7.2 phosphate buffer) and mixed thoroughly. This was repeated to make serial 1:10 dilutions. Then, 0.1 mL of each sample and dilution was inoculated onto agar plates to produce the equivalent of a further 1:10 dilution. (C. albicans and A. niger were inoculated onto SABD and bacteria were inoculated onto Plate Count Agar (PCA), DIFCO™ available from Becton, Dickinson and Company.) (The normal volume plated for most samples was 0.1 mL. Some samples that could be very low in micro-organisms (high dilutions) were plated using 0.5 mL of inoculum, in order to produce reproducible counts.) The samples were distributed on the plates using the spread-plate technique. The spread-plate technique is carried out by spreading the sample over the entire plate surface using a sterile spreading rod while rotating the plate with a rotary auto-plater. After the inoculum was absorbed completely by the agar, each plate was inverted and incubated (fungi at 22° C.+/−2° C. and bacteria at 35° C.+/−2° C.).
# (§5) After incubation for at least 48 hours, colonies that had developed on the agar plates were counted (CFU) and recorded with the corresponding dilution. If counting had to be delayed temporarily, plates were refrigerated, preferably no more than 24 hours, until they could be counted. The number of CFU/mL was determined by multiplying the plate count by the dilution factor of the plate counted.
# (§6) Turbidity in Nepholemetric Turbidity Units (NTU) was measured for each serial dilution using the HF-Micro 100 Model Turbidimeter. For each microorganism, the plate counts were compared to the turbidity readings.
# (§7) Control substrates (“broth alone”) were prepared for each microorganism separately in triplicate by adding 13.5 mL of Buffered Peptone Water broth (BPW) containing 1% dextrose to each 20-mL glass tube, then adding 1.5 mL challenge material to produce a final concentration at time zero of 10^5 to 10^6 CFU/mL and a total volume of 15 mL.
# (§8) Test sample substrates were prepared containing each test material listed below at the concentrations shown for challenge testing with each microorganism separately. Sample substrates were prepared in triplicate, except the substrates containing butoxyethanol which were prepared in duplicate. Substrates were prepared by adding BPW containing 1% dextrose to each 20-mL glass tube, then adding the test material in the amount appropriate to achieve the desired weight/volume percent and to achieve a total volume of BPW plus dextrose plus test material of 13.5 mL. Then 1.5 mL challenge material was added to produce a final concentration at time zero of 10^5 to 10^6 CFU/mL and a total test sample substrate volume of 15 mL.
# [1] = test system: Burkholderia cepacia Wild type; conditions: B. cepacia
# Experimental: as §1, §2, §3, §4, §5, §6, §7, §8
# [2] = test system: Staphylococcus aureus ATCC 25923; conditions: S. aureus
# Experimental: as §1, §2, §3, §4, §5, §6, §7, §8
# [3] = test system: Staphylococcus epidermidis ATCC 12228
# Experimental: as §1, §2, §3, §4, §5, §6, §7, §8
smiles,measurement,setting,value
"CC(O)CO (stereo not drawn) [PG, propylene glycol]","Aeromonas sp growth grade, 3 day",Aeromonas sp. Wild type; 2.5% weight/volume,"5 (More than 10,000 colonies estimated (thus more than 100,000 CFU/mL))"
same,"Aeromonas sp growth grade, 14 day",Aeromonas sp. Wild type; 2.5% weight/volume,"5 (More than 10,000 colonies estimated (thus more than 100,000 CFU/mL))"
same,"Aeromonas sp growth grade, 30 day",Aeromonas sp. Wild type; 2.5% weight/volume,"5 (More than 10,000 colonies estimated (thus more than 100,000 CFU/mL))"
same,"Aeromonas sp growth grade, 3 day",Aeromonas sp. Wild type; 5.0% weight/volume,"5 (More than 10,000 colonies estimated (thus more than 100,000 CFU/mL))"
same,"Aeromonas sp growth grade, 14 day",Aeromonas sp. Wild type; 5.0% weight/volume,"4 (1000 to 10,000 colonies countable (thus 10,000 CFU/mL to 100,000 CFU/mL))"
same,"Aeromonas sp growth grade, 30 day",Aeromonas sp. Wild type; 5.0% weight/volume,"4 (1000 to 10,000 colonies countable (thus 10,000 CFU/mL to 100,000 CFU/mL))"
same,Grade,"[1]; 0.5% (wt/vol), 3 day","5 (More than 10,000 colonies estimated (thus more than 100,000 CFU/mL))"
same,Grade,"[1]; 0.5% (wt/vol), 14 day","5 (More than 10,000 colonies estimated (thus more than 100,000 CFU/mL))"
same,Grade,"[1]; 0.5% (wt/vol), 30 day","5 (More than 10,000 colonies estimated (thus more than 100,000 CFU/mL))"
same,Grade,"[1]; 1.25% (wt/vol), 3 day","5 (More than 10,000 colonies estimated (thus more than 100,000 CFU/mL))"
same,Grade,"[1]; 1.25% (wt/vol), 14 day","5 (More than 10,000 colonies estimated (thus more than 100,000 CFU/mL))"
same,Grade,"[1]; 1.25% (wt/vol), 30 day","5 (More than 10,000 colonies estimated (thus more than 100,000 CFU/mL))"
same,Grade,"[1]; 2.5% (wt/vol), 3 day","5 (More than 10,000 colonies estimated (thus more than 100,000 CFU/mL))"
same,Grade,"[1]; 2.5% (wt/vol), 14 day","5 (More than 10,000 colonies estimated (thus more than 100,000 CFU/mL))"
same,Grade,"[1]; 2.5% (wt/vol), 30 day","5 (More than 10,000 colonies estimated (thus more than 100,000 CFU/mL))"
same,Grade,"[1]; 5.0% (wt/vol), 3 day","4 (1000 to 10,000 colonies countable (thus 10,000 CFU/mL to 100,000 CFU/mL))"
same,Grade,"[1]; 5.0% (wt/vol), 14 day","4 (1000 to 10,000 colonies countable (thus 10,000 CFU/mL to 100,000 CFU/mL))"
same,Grade,"[1]; 5.0% (wt/vol), 30 day","4 (1000 to 10,000 colonies countable (thus 10,000 CFU/mL to 100,000 CFU/mL))"
same,Grade,"[2]; 0.5% (wt/vol), 3 day","5 (More than 10,000 colonies estimated (thus more than 100,000 CFU/mL))"
same,Grade,"[2]; 0.5% (wt/vol), 14 day","4 (1000 to 10,000 colonies countable (thus 10,000 CFU/mL to 100,000 CFU/mL))"
same,Grade,"[2]; 0.5% (wt/vol), 30 day","4 (1000 to 10,000 colonies countable (thus 10,000 CFU/mL to 100,000 CFU/mL))"
same,Grade,"[2]; 1.25% (wt/vol), 3 day","4 (1000 to 10,000 colonies countable (thus 10,000 CFU/mL to 100,000 CFU/mL))"
same,Grade,"[2]; 1.25% (wt/vol), 14 day","4 (1000 to 10,000 colonies countable (thus 10,000 CFU/mL to 100,000 CFU/mL))"
same,Grade,"[2]; 1.25% (wt/vol), 30 day","4 (1000 to 10,000 colonies countable (thus 10,000 CFU/mL to 100,000 CFU/mL))"
same,Grade,"[2]; 2.5% (wt/vol), 3 day","4 (1000 to 10,000 colonies countable (thus 10,000 CFU/mL to 100,000 CFU/mL))"
same,Grade,"[2]; 2.5% (wt/vol), 14 day","4 (1000 to 10,000 colonies countable (thus 10,000 CFU/mL to 100,000 CFU/mL))"
same,Grade,"[2]; 2.5% (wt/vol), 30 day","4 (1000 to 10,000 colonies countable (thus 10,000 CFU/mL to 100,000 CFU/mL))"
same,Grade,"[2]; 5.0% (wt/vol), 3 day","4 (1000 to 10,000 colonies countable (thus 10,000 CFU/mL to 100,000 CFU/mL))"
same,Grade,"[2]; 5.0% (wt/vol), 14 day","4 (1000 to 10,000 colonies countable (thus 10,000 CFU/mL to 100,000 CFU/mL))"
same,Grade,"[2]; 5.0% (wt/vol), 30 day","4 (1000 to 10,000 colonies countable (thus 10,000 CFU/mL to 100,000 CFU/mL))"
same,"S. epidermidis growth grade, 3 day",[3]; 0.5% weight/volume,"5 (More than 10,000 colonies estimated (thus more than 100,000 CFU/mL))"
same,"S. epidermidis growth grade, 13 day",[3]; 0.5% weight/volume,"5 (More than 10,000 colonies estimated (thus more than 100,000 CFU/mL))"
same,"S. epidermidis growth grade, 30 day",[3]; 0.5% weight/volume,"5 (More than 10,000 colonies estimated (thus more than 100,000 CFU/mL))"
same,"S. epidermidis growth grade, 3 day",[3]; 1.25% weight/volume,"4 (1000 to 10,000 colonies countable (thus 10,000 CFU/mL to 100,000 CFU/mL))"
same,"S. epidermidis growth grade, 13 day",[3]; 1.25% weight/volume,"4 (1000 to 10,000 colonies countable (thus 10,000 CFU/mL to 100,000 CFU/mL))"
same,"S. epidermidis growth grade, 30 day",[3]; 1.25% weight/volume,"4 (1000 to 10,000 colonies countable (thus 10,000 CFU/mL to 100,000 CFU/mL))"
same,"S. epidermidis growth grade, 3 day",[3]; 2.5% weight/volume,"4 (1000 to 10,000 colonies countable (thus 10,000 CFU/mL to 100,000 CFU/mL))"
same,"S. epidermidis growth grade, 13 day",[3]; 2.5% weight/volume,"4 (1000 to 10,000 colonies countable (thus 10,000 CFU/mL to 100,000 CFU/mL))"
same,"S. epidermidis growth grade, 30 day",[3]; 2.5% weight/volume,"4 (1000 to 10,000 colonies countable (thus 10,000 CFU/mL to 100,000 CFU/mL))"
same,"S. epidermidis growth grade, 3 day",[3]; 5.0% weight/volume,"4 (1000 to 10,000 colonies countable (thus 10,000 CFU/mL to 100,000 CFU/mL))"
same,"S. epidermidis growth grade, 13 day",[3]; 5.0% weight/volume,"4 (1000 to 10,000 colonies countable (thus 10,000 CFU/mL to 100,000 CFU/mL))"
same,"S. epidermidis growth grade, 30 day",[3]; 5.0% weight/volume,"4 (1000 to 10,000 colonies countable (thus 10,000 CFU/mL to 100,000 CFU/mL))"
